Earlier results as cited in US20080241273A1, “MASTIC GUM COMPOSITION FOR USE AS A DIETARY SUPPLEMENT IN HUMANS AND ANIMALS” (INTACT ENTERPRISES, INC., priority 2005, published 2008).

Experiments:
[1] = healthy individuals, oral
[2] = hydrochloric acid titrated to a pH between 6 and 7
[3] = infusion, patients with lowered ionized magnesium
[4] = 6 mg/kg daily orally for up to 60 days
[5] = dogs
[6] = type 1 and type 2 diabetes
[7] = oral, six weeks, daily dose of 15 mmol

In the case of magnesium citrate, the “in vivo absorption (rise in urinary magnesium levels)” value [1] is given as “absorbed to a much greater extent than the oxide” and the reprecipitation [2] is given as “did not occur”.

In the case of `[Mg+2]` [magnesium], the “relief of acute migraine” value [3] is given as “rapid and sustained relief” and the “serum concentrations of calcium, magnesium, parathyroid hormone, calcitriol, osteocalcin” value [4] is given as “increased significantly”.

For `[O]=[Mg]` [magnesium oxide], the reprecipitation [2] is given as “did not occur”.

For `C[C@H](O)C(=O)[O-].C[C@H](O)C(=O)[O-].O.O.[Mg+2]` [magnesium L-lactate dihydrate], the “bioavailability under decreased acidity” value [5] is listed as “did not impair”.

In the case of `O=S(=O)([O-])[O-].[O]=[V+2]` [vanadyl sulfate], the blood sugar [6] is given as “reduced” and the insulin sensitivity [6] is given as “improved”.

For magnesium lactate citrate, the bioavailability [7] is listed as “satisfactory”.
